Data on 28 compounds can be found in ChEMBL document CHEMBL5726571, “5-hydroxytryptamine receptor 7 activity modulators and their method of use” (2017).

The structures appear in SMILES notation.

One may read the IC50 as the concentration that gives 50% inhibition.

This assay addresses 5-hydroxytryptamine receptor 7 (Homo sapiens, UniProt P34969). The experiment in a line: Radiolabel Binding Assay: A stock concentration of 5 nM [3H]LSD (lysergic acid diethyl amide) is prepared in 50 mM Tris-HCl, 10 mM MgCl2, 1 mM EDTA, pH 7.4 (Assay Buffer). Aliquots (50 μl) of radioligand are dispensed into the wells of a 96-well plate containing 100 μl of Assay Buffer. Duplicate 50-μl aliquots of the compound of the disclosure test and chlorpromazine positive control reference compound serial dilutions are added.Membrane fractions of cells expressing recombinant 5HT7 receptors (50 μL) are dispensed into each well. The membranes are prepared from stably tranfected cell lines expressing 5HT7 receptors cultured on 10-cm plates by harvesting PBS-rinsed monolayers, resuspending and lysing in chilled, hypotonic 50 mM Tris-HCl, pH 7.4, centrifuging at 20,000×g, decanting the supernatant and storing at −80° C.; the membrane preparations are resuspended in 3 ml of chilled Assay Buffer and homogenized by several passages through a 26 gauge needle before using in the assay.

Chain of 5-hydroxytryptamine receptor 7 (P34969 whole entry): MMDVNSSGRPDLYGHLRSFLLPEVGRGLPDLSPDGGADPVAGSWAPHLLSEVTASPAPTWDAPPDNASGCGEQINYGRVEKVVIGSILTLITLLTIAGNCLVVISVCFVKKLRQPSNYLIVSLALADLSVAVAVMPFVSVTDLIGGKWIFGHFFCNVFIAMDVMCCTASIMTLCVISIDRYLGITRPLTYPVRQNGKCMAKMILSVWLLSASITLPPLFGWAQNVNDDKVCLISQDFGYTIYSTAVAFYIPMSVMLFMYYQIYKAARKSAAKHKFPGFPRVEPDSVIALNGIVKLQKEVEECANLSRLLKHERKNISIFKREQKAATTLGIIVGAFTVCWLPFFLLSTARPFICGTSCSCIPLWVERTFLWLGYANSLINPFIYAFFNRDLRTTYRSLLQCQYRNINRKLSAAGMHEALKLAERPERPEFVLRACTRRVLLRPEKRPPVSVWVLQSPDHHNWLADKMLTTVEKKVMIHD

Regarding `O=C1OC(CCN2CCN(c3cccnc3)CC2)CC12CCCCC2` (stereo not drawn), the IC50 is 749 nM.

For the compound `CCC1(CC)CC(CCN2CCN(c3c(C)cccc3C)CC2)OC1=O` (stereo not drawn), the IC50 came out at 1380 nM.

Turning to `CCC1(CC)CC(CCN2CCN(c3ccc(C#N)cc3)CC2)OC1=O` (stereo not drawn), the half-maximal inhibitory concentration (IC50) was 134 nM.

As to `CCC1(CC)CC(CCN2CCN(c3cccc(O)c3)CC2)OC1=O` (stereo not drawn), the IC50 was determined as 324 nM.

`COc1cccc(N2CCN(CCC3CC4(CCCCC4)C(=O)O3)CC2)c1` (stereo not drawn): the IC50 turned out to be 56 nM.

`O=C1OC(CCN2CCN(c3ccc(C(F)(F)F)cc3)CC2)CC12CCCCC2` (stereo not drawn): the IC50 was 183 nM.

Turning to `CCC1(CC)CC(CCN2CCN(c3ccccc3OC)CC2)OC1=O` (stereo not drawn), the IC50 was 118 nM.

`CCC1(CC)CC(CCN2CCc3ccccc3C2)OC1=O` (stereo not drawn): the IC50 was 13 nM.

As to `CCC1(CC)CC(CCN2CCN(c3ccc(C(O)(c4ccccc4)c4ccccc4)cc3)CC2)OC1=O` (stereo not drawn), the half-inhibitory concentration (IC50) amounted to 3160 nM.

For `CCC1(CC)CC(CCN2CCN(c3cccc(OC)c3)CC2)OC1=O` (stereo not drawn), the IC50 is 165 nM.

As to `CCC1(CC)CC(CCN2CCN(c3ccc(C)cc3C)CC2)OC1=O` (stereo not drawn), the 50% inhibitory concentration (IC50) was found to be 363 nM.

With `CC(C)c1ccccc1N1CCN(CCC2CC3(CCCC3)C(=O)O2)CC1` (stereo not drawn), the IC50 was 24 nM.

`COc1ccccc1N1CCN(CCC2CC3(CCCCC3)C(=O)O2)CC1` (stereo not drawn): the IC50 was 72 nM.

Take `CCC1(CC)CC(CCN2CCN(c3ccc([N+](=O)[O-])cc3)CC2)OC1=O` (stereo not drawn): the IC50 was determined as 54 nM.

With `CCC1(CC)CC(CCN2CCN(c3ccc(N)cc3)CC2)OC1=O` (stereo not drawn), the IC50 was 471 nM.

As to `CCC1(CC)CC(CCN2CCN(c3ccc(O)cc3)CC2)OC1=O` (stereo not drawn), the IC50 stood at 89 nM.

As to `O=C1OC(CCN2CCN(c3ccc(C(F)(F)F)cn3)CC2)CC12CCCCC2` (stereo not drawn), the 50% inhibitory concentration (IC50) stood at 254 nM.

In the case of `CC(C)(C)c1ccccc1N1CCN(CCC2CC3(CCCC3)C(=O)O2)CC1` (stereo not drawn), the IC50 came out at 1920 nM.

As to `CCC1(CC)CC(CCN2CCN(C3CCCCC3)CC2)OC1=O` (stereo not drawn), the IC50 is 3760 nM.

As to `CCC1(CC)CC(CCN2CCN(c3ccccc3C)CC2)OC1=O` (stereo not drawn), the IC50 worked out at 104 nM.

`Cc1ccc(N2CCN(CCCC3CC(c4ccccc4)(c4ccccc4)C(=O)O3)CC2)cc1` (stereo not drawn): the half-maximal inhibitory concentration (IC50) came to 146 nM.

For the compound `Cc1ccc(N2CCN(CCC3CC(c4ccccc4)(c4ccccc4)C(=O)O3)CC2)cc1` (stereo not drawn), the IC50 came out at 145 nM.

For the compound `O=C1OC(CCN2CCN(c3ccccn3)CC2)CC12CCCCC2` (stereo not drawn), the IC50 was 44 nM.

On to `O=C1OC(CCN2CCN(c3ccccc3)CC2)CC12CCCCC2` (stereo not drawn), for which the half-inhibitory concentration (IC50) turned out to be 33 nM.

Turning to `CCC1(CC)CC(CCN2CCN(C(c3ccccc3)c3ccccc3)CC2)OC1=O` (stereo not drawn), the IC50 came out at 83 nM.

Regarding `CCC1(CC)CC(CCN2CCN(c3ccccc3O)CC2)OC1=O` (stereo not drawn), the IC50 came out at 156 nM.

For the compound `CCC1(CC)CC(CCN2CCN(c3ccccc3)CC2)OC1=O` (stereo not drawn), the IC50 turned out to be 21 nM.

As to `N#Cc1ccc(N2CCN(CCC3CC4(CCCCC4)C(=O)O3)CC2)nc1` (stereo not drawn), the IC50 came out at 1520 nM.
